The record followed here is US20240382474A1, “ENPP1 MODULATORS AND USES THEREOF” (Vir Biotechnology, Inc., priority 2021, published 2024).

Where only a bound is given, the exact number is not on record here.

Usually IC50 stands for the concentration needed to halve the response being measured.

The test deals with T1, human ENPP1 enzymatic domain (Homo sapiens, UniProt P22413).
T1 construct: recombinant protein containing the human ENPP1 enzymatic domain; purchased Viva Biotech
T1 sequence (P22413 191-591 limits assumed): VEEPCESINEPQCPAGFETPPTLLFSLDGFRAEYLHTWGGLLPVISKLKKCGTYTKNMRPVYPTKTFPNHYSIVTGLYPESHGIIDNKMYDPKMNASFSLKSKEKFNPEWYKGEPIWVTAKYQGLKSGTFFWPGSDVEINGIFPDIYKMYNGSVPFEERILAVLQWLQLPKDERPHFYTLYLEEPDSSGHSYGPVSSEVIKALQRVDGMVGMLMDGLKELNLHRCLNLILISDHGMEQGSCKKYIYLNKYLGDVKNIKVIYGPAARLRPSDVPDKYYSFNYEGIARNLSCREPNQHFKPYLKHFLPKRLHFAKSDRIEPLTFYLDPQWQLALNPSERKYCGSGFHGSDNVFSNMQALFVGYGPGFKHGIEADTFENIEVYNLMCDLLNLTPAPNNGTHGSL
Kind of test: ENPP1 Enzymatic Inhibition Assay (2′3′-cGAMP substrate, AMP-Glo luminescence). It counts as biochemical. The note with it: 1 nM ENPP1, 20 uM 2′3′-cGAMP, 30 minutes at 37° C. How it is done:
The inhibition of ENPP1's phosphodiesterase activity were tested in a purified enzymatic assay using 2′3′-cyclic GAMP as a substrate which allowed for the release of cleaved AMP to be monitored using a luminescent assay.
Putative inhibitors were diluted in assay buffer (50 mM Tris pH 8.0, 250 mM NaCl, 0.5 mM CaCl2), 1 uM ZnCl2, 1% DMSO) and pre-incubated for 15 minutes at 37° C. with recombinant protein containing the human ENPP1 enzymatic domain (Viva Biotech). The enzymatic reaction was initiated upon addition of the 2′3′-cGAMP substrate. The final reaction concentrations were 1 nM ENPP1 and 20 uM 2′3′-cGAMP substrate in a 25 uL volume. Inhibitor concentrations ranged from 10 uM to 0.056 nM. The reaction was incubated for 30 minutes at 37° C.
After reacting for 30 minutes, the amount of AMP generated from the cleavage of 2′3′-cGAMP was determined using the Promega AMP-Glo method according to the manufacturer's protocol. First, AMP-Glo reagent 1 was added and incubated with the reaction mix for 1 hour at room temperature. Second, AMP Detection solution was added and the mixture was incubated for an additional hour. The luminescence of the mixture was read on a Perkin Elmer Ensight plate reader.
The maximum and minimum levels of ENPP1 activity were established using no inhibitor and no enzyme controls, respectively. The activity observed using ENPP1 inhibitors was quantified as the percent of activity relative to these controls. IC50 values were calculated using CDD Vault by fitting a sigmoidal variable slope nonlinear regression model to the data.
`COc1ccc2c(Nc3ccc([S@@](=N)(=O)NC[C@@H](C)OC(C)=O)cc3)ccnc2c1` [Compound 69, (R)-1-(((S)-4-((7-methoxyquinolin-4-yl)amino)phenyl)sulfonoamidimidamido)propan-2-yl acetate] had an IC50 of under 0.01 µM.

With `COc1ccc2c(Oc3ccc([S@@](=N)(=O)NC[C@H](O)C(C)(C)C)cc3)ccnc2c1` [Compound 44, (S)-N-((R)-2-hydroxy-3,3-dimethylbutyl)-4-((7-methoxyquinolin-4-yl)oxy)benzenesulfonimidamide], the IC50 lay in the range of 0.01 to 0.1 µM.

Turning to `COc1ccc2c(Nc3ccc([S@](=N)(=O)NC[C@@H](C)O)cc3)ncnc2c1` [Compound 63, (R)-N-((R)-2-hydroxypropyl)-4-((7-methoxyquinazolin-4-yl)amino)benzenesulfonimidamide], the IC50 was 0.01 to 0.1 µM.

`COc1cccc2c(Nc3ccc([S@](=N)(=O)NCCO)cc3)ccnc12` [Compound 57, (R)-N-(2-hydroxyethyl)-4-((8-methoxyquinolin-4-yl)amino)benzenesulfonimidamide] registered an IC50 of over 0.1 µM.

`COc1ccc2c(Oc3ccc([S@](=N)(=O)NC[C@@H](C)O)cc3)ccnc2c1` [Compound 25, (R)-N-((R)-2-hydroxypropyl)-4-((7-methoxyquinolin-4-yl)oxy)benzenesulfonimidamide] yielded an IC50 of under 0.01 µM.

In turn, `COc1cc2nccc(Nc3ccc([S@](=N)(=O)NC[C@@H](C)O)cc3)c2cc1OC` [Compound 51, (R)-4-((6,7-dimethoxyquinolin-4-yl)amino)-N-((R)-2-hydroxypropyl)benzenesulfonimidamide] registered an IC50 of 0.01 to 0.1 µM.

Compound `CN[S@](=N)(=O)c1ccc(Nc2ccnc3cc(OC)ccc23)cc1` [Compound 18, (S)-4-((7-methoxyquinolin-4-yl)amino)-N-methylbenzenesulfonimidamide] registered an IC50 of under 0.01 µM.

With `COc1cc2nccc(Nc3ccc([S@@](=N)(=O)NC4CC4)cc3)c2cc1F` [Compound 67, (S)-N-cyclopropyl-4-((6-fluoro-7-methoxyquinolin-4-yl)amino)benzenesulfonimidamide], the IC50 is under 0.01 µM.

Consider `COc1ccc2c(Oc3ccc([S@@](=N)(=O)NC(C)c4ccn(C)n4)cc3)ccnc2c1` (stereo partly drawn) [Compound 30, (S)-4-((7-methoxyquinolin-4-yl)oxy)-N-(1-(1-methyl-1H-pyrazol-3-yl)ethyl)benzenesulfonimidamide], for which the concentration for half-maximal inhibition (IC50) is under 0.01 µM.

As for `COc1ccc2c(Nc3ccc([S@@](=N)(=O)NCC4CC4)cc3)c(C#N)cnc2c1` [Compound 21, (S)-4-((3-cyano-7-methoxyquinolin-4-yl)amino)-N-(cyclopropylmethyl)benzenesulfonimidamide], the IC50 was in the range of 0.01 to 0.1 µM.

In turn, `COc1ccc2c(Oc3ccc([S@](=N)(=O)NC(C)c4ccn(C)n4)cc3)ccnc2c1` (stereo partly drawn) [Compound 29, (R)-4-((7-methoxyquinolin-4-yl)oxy)-N-(1-(1-methyl-1H-pyrazol-3-yl)ethyl)benzenesulfonimidamide] showed an IC50 of under 0.01 µM.

With `COc1ccc2c(Nc3ccc([S@@](=N)(=O)NCCCn4cnnc4)cc3)ccnc2c1` [Compound 50, (S)-N-(3-(4H-1,2,4-triazol-4-yl)propyl)-4-((7-methoxyquinolin-4-yl)amino)benzenesulfonimidamide], the IC50 is under 0.01 µM.

With `CN[S@](=N)(=O)c1ccc(Oc2ccnc3cc(OC)ccc23)cc1` [Compound 2, (S)-4-((7-methoxyquinolin-4-yl)oxy)-N-methylbenzenesulfonimidamide], the IC50 is under 0.01 µM.

Regarding `COc1ccc2c(Oc3ccc([S@](=N)(=O)N[C@H](C)c4ccnn4C)cc3)ccnc2c1` [Compound 27, (R)-4-((7-methoxyquinolin-4-yl)oxy)-N-((R)-1-(1-methyl-1H-pyrazol-5-yl)ethyl)benzenesulfonimidamide], the IC50 is 0.01 to 0.1 µM.

Turning to `COc1ccc2c(Nc3ccc([S@@](=N)(=O)N[C@@H](C)CO)cc3)ccnc2c1` [Compound 40, (S)-N-((S)-1-hydroxypropan-2-yl)-4-((7-methoxyquinolin-4-yl)amino)benzenesulfonimidamide], the IC50 is 0.01 to 0.1 µM.
